Data as given in patent US11608359B2, “Compounds and methods for treating tight junction permeabtility” (9 Meters Biopharma, Inc., priority 2018, dated 2023).
Where no end group is shown, it is not given here.

Legend:
tight junctions = experiment: activity as tight junction regulators; conditions: for activity as tight junction regulator: peptide fragment alone
[1] = clinical trials, particularly lower doses (e.g., 0.5 mg dose); cited from earlier work

Substance | activity as tight junction regulator (tight junctions) | benefit at reducing CeD symptoms [1] | activity of full length Larazotide as tight junction regulator (tight junctions; mixed with the two fragments GVLVQPG and VLVQPG)
VLVQPG | inactive | – | –
GGVLVQPG [Larazotide] | – | significant benefit | completely abolished
GVLVQPG [Larazotide-derived fragment missing N-terminal glycine] | inactive | – | –
GVLVQP (Synthetic polymer.) | inactive | – | –
VLVQP (Synthetic polymer.) | inactive | – | –
